Assay results as given in patent publication US9783532B2, “Molecules having certain pesticidal utilities, and intermediates, compositions, and processes related thereto” (Dow AgroSciences LLC, priority 2013, dated 2017).

Legend:
Assay type in all cases: in vivo
[1] = tested on: Beet Armyworm (Spodoptera exigua) ("BAW"); assay: Bioassay on beet armyworm (BAW), 128-well diet tray assay; details: for mortality at 50 µg/cm2: 168 h, 50 μg/cm^2 on artificial diet, second instar BAW larvae, 25° C., five to seven days, average of eight wells, read-out: BAW % Control (or Mortality) rating; for pest or weed control at 50 µg/cm2: Table ABC (PC), activity rating class, read-out: BAW (Biological Results, Insect species)
Method in brief: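 Percent mortality, averaged across eight wells, was read after five to seven days at 25° C. under 14:10 light-dark. Each well held one to five second-instar larvae on artificial diet that had been treated with 50 μg/cm^2 compound in 90:10 acetone-water and dried.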

[2] = tested on: Yellow Fever Mosquito "YFM" (Aedes aegypti); details: about 1 day-old larvae, 96-well plate, room temperature, 3 days, mortality
Method: Certain molecules disclosed in this document were tested against YFM using procedures described in the following paragraph. In the reporting of the results, the “YFM Rating Table” was used (See Table Section).
Master plates containing 400 μg of a molecule dissolved in 100 μL of dimethyl sulfoxide (DMSO) (equivalent to a 4000 ppm solution) are used. A master plate of assembled molecules contains 15 μL per well. To this plate, 135 μL of a 90:10 wateracetone mixture is added to each well. A robot (Biomek® NXP Laboratory Automation Workstation) is programmed to dispense 15 μL aspirations from the master plate into an empty 96-well shallow plate (“daughter” plate). There are 6 reps (“daughter” plates) created per master. The created daughter plates are then immediately infested with YFM larvae.
The day before plates are to be treated, mosquito eggs are placed in Millipore water containing liver powder to begin hatching (4 g. into 400 mL). After the daughter plates are created using the robot, they are infested with 220 μL of the liver powder/larval mosquito mixture (about 1 day-old larvae). After plates are infested with mosquito larvae, a non-evaporative lid is used to cover the plate to reduce drying. Plates are held at room temperature for 3 days prior to grading. After 3 days, each well is observed and scored based on mortality.

[3] = tested on: Cabbage Looper (Trichoplusia ni) ("CL"); assay: Bioassay on cabbage looper (CL), 128-well diet tray assay; details: Table ABC (PC), activity rating class, read-out: CL (Biological Results, Insect species)
Method in brief: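 Percent mortality, averaged across eight replicate wells, was read after five to seven days at 25 °C under a 14:10 photoperiod. Each well held one to five second-instar T. ni on diet carrying a dried 50 μg/cm^2 dose applied in acetone-water 90:10.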

Structure (SMILES)	mortality at 50 µg/cm2 [1]	YFM % Control (or Mortality) rating [2]	pest or weed control at 50 µg/cm2 [1]	pest or weed control at 50 µg/cm2 [3]
CCC(CNC(=O)/N=C1\SCC(=O)N1c1ccccc1C(C)C)c1ccc(-c2ncn(-c3ccc(OC(F)(F)F)cc3)n2)cc1 (stereo not shown) [P209, (Z)-1-(3-(2-isopropylphenyl)-4-oxothiazolidin-2-ylidene)-3-(2-(4-(1-(4-(trifluoromethoxy)phenyl)-1H-1,2,4-triazol-3-yl)phenyl)butyl)urea]	50 to 100%	A (80-100)	–	–
CCC(CNC(=O)/N=C1\SCC(=O)N1c1cc(OC)ccc1C(C)C)c1ccc(-c2ncn(-c3ccc(OC(F)(F)F)cc3)n2)cc1 (stereo not shown) [P683, (Z)-1-(3-(2-isopropyl-5-methoxyphenyl)-4-oxothiazolidin-2-ylidene)-3-(2-(4-(1-(4-(trifluoromethoxy)phenyl)-1H-1,2,4-triazol-3-yl)phenyl)butyl)urea]	50 to 100%	A (80-100)	–	–
CCC(CNC(=O)/N=C1\SCC(=O)N1c1ccc(F)cc1C(C)C)c1ccc(-c2ncn(-c3ccc(OC(F)(F)F)cc3)n2)cc1 (stereo not shown) [P1163]	50 to 100%	D (No activity noticed in this bioassay)	–	–
CCCc1ccc(C)cc1NC(=S)NC(=O)NCCCc1cccc(-c2ncn(-c3ccc(OC(F)(F)F)cc3)n2)c1 [PC125, 1-[(5-methyl-2-propyl-phenyl)carbamothioyl]-3-[3-[3-[1-[4-(trifluoromethoxy)phenyl]-1H-1,2,4-triazol-3-yl]phenyl]propyl]urea]	–	–	50 to 100%	50 to 100%
CCc1cccc(C)c1NC(=S)NC(=O)NCCCc1cccc(-c2ncn(-c3ccc(OC(F)(F)F)cc3)n2)c1 [PC127, 1-[(2-ethyl-6-methyl-phenyl)carbamothioyl]-3-[3-[3-[1-[4-(trifluoromethoxy)phenyl]-1H-1,2,4-triazol-3-yl]phenyl]propyl]urea]	–	–	50 to 100%	50 to 100%
Cc1ccc(NC(=S)NC(=O)NCCCc2cccc(-c3ncn(-c4ccc(OC(F)(F)F)cc4)n3)c2)c(C(C)C)c1 [PC128, 1-[(2-isopropyl-4-methyl-phenyl)carbamothioyl]-3-[3-[3-[1-[4-(trifluoromethoxy)phenyl]-1H-1,2,4-triazol-3-yl]phenyl]propyl]urea]	–	–	50 to 100%	50 to 100%
CC(C)c1cc(F)ccc1NC(=S)NC(=O)NCCCc1cccc(-c2ncn(-c3ccc(OC(F)(F)F)cc3)n2)c1 [PC129, 1-[(4-fluoro-2-isopropyl-phenyl)carbamothioyl]-3-[3-[3-[1-[4-(trifluoromethoxy)phenyl]-1H-1,2,4-triazol-3-yl]phenyl]propyl]urea]	–	–	50 to 100%	50 to 100%
COc1ccc(NC(=S)NC(=O)NCCCc2cccc(-c3ncn(-c4ccc(OC(F)(F)F)cc4)n3)c2)c(C)c1 [PC131, 1-[(4-methoxy-2-methyl-phenyl)carbamothioyl]-3-[3-[3-[1-[4-(trifluoromethoxy)phenyl]-1H-1,2,4-triazol-3-yl]phenyl]propyl]urea]	–	–	50 to 100%	50 to 100%
Cc1ccccc1NC(=S)NC(=O)NCCCCc1ccc(-c2ncn(-c3ccc(OC(F)(F)F)cc3)n2)cc1 [PC144, 1-(o-tolylcarbamothioyl)-3-[4-[4-[1-[4-(trifluoromethoxy)phenyl]-1H-1,2,4-triazol-3-yl]phenyl]butyl]urea]	–	–	50 to 100%	50 to 100%
CCc1ccccc1NC(=S)NC(=O)NCCCCc1ccc(-c2ncn(-c3ccc(OC(F)(F)F)cc3)n2)cc1 [PC145, 1-[(2-ethylphenyl)carbamothioyl]-3-[4-[4-[1-[4-(trifluoromethoxy)phenyl]-1H-1,2,4-triazol-3-yl]phenyl]butyl]urea]	–	–	50 to 100%	50 to 100%
CC(C)c1ccccc1NC(=S)NC(=O)NCCCCc1ccc(-c2ncn(-c3ccc(OC(F)(F)F)cc3)n2)cc1 [PC146, 1-[(2-isopropylphenyl)carbamothioyl]-3-[4-[4-[1-[4-(trifluoromethoxy)phenyl]-1H-1,2,4-triazol-3-yl]phenyl]butyl]urea]	–	–	50 to 100%	50 to 100%
Cc1ccc(C(C)C)c(NC(=S)NC(=O)NCCCCc2ccc(-c3ncn(-c4ccc(OC(F)(F)F)cc4)n3)cc2)c1 [PC150, 1-[(2-isopropyl-5-methyl-phenyl)carbamothioyl]-3-[4-[4-[1-[4-(trifluoromethoxy)phenyl]-1H-1,2,4-triazol-3-yl]phenyl]butyl]urea]	–	–	50 to 100%	50 to 100%
Cc1cccc(C)c1NC(=S)NC(=O)NCCCCc1ccc(-c2ncn(-c3ccc(OC(F)(F)F)cc3)n2)cc1 [PC152, 1-[(2,6-dimethylphenyl)carbamothioyl]-3-[4-[4-[1-[4-(trifluoromethoxy)phenyl]-1H-1,2,4-triazol-3-yl]phenyl]butyl]urea]	–	–	50 to 100%	50 to 100%
Cc1ccc(NC(=S)NC(=O)NCCCCc2ccc(-c3ncn(-c4ccc(OC(F)(F)F)cc4)n3)cc2)c(C(C)C)c1 [PC154, 1-[(2-isopropyl-4-methyl-phenyl)carbamothioyl]-3-[4-[4-[1-[4-(trifluoromethoxy)phenyl]-1H-1,2,4-triazol-3-yl]phenyl]butyl]urea]	–	–	50 to 100%	50 to 100%
CC(C)c1cc(F)ccc1NC(=S)NC(=O)NCCCCc1ccc(-c2ncn(-c3ccc(OC(F)(F)F)cc3)n2)cc1 [PC155, 1-[(4-fluoro-2-isopropyl-phenyl)carbamothioyl]-3-[4-[4-[1-[4-(trifluoromethoxy)phenyl]-1H-1,2,4-triazol-3-yl]phenyl]butyl]urea]	–	–	50 to 100%	50 to 100%
COc1ccc(C(C)C)c(NC(=S)NC(=O)NCCCCc2ccc(-c3ncn(-c4ccc(OC(F)(F)F)cc4)n3)cc2)c1 [PC156]	–	–	50 to 100%	50 to 100%
Cc1ccc(C(C)C)c(NC(=S)NC(=O)NCCCCc2ccc(-c3ncn(-c4ccc(C(F)(F)F)cc4)n3)cc2)c1 [PC159, 1-[(2-isopropyl-5-methyl-phenyl)carbamothioyl]-3-[4-[4-[1-[4-(trifluoromethyl)phenyl]-1H-1,2,4-triazol-3-yl]phenyl]butyl]urea]	–	–	50 to 100%	50 to 100%
Cc1ccc(C(C)C)c(NC(=S)NC(=O)NCCC#Cc2ccc(-c3ncn(-c4ccc(OC(F)(F)F)cc4)n3)cc2)c1 [PC160, 1-[(2-isopropyl-5-methyl-phenyl)carbamothioyl]-3-[4-[4-[1-[4-(trifluoromethoxy)phenyl]-1H-1,2,4-triazol-3-yl]phenyl]but-3-ynyl]urea]	–	–	50 to 100%	50 to 100%
Cc1ccccc1NC(=S)NC(=O)NCCCCc1cccc(-c2ncn(-c3ccc(OC(F)(F)F)cc3)n2)c1 [PC170, 1-(o-tolylcarbamothioyl)-3-[4-[3-[1-[4-(trifluoromethoxy)phenyl]-1H-1,2,4-triazol-3-yl]phenyl]butyl]urea]	–	–	0 to 50%	50 to 100%
CCc1ccccc1NC(=S)NC(=O)NCCCCc1cccc(-c2ncn(-c3ccc(OC(F)(F)F)cc3)n2)c1 [PC171, 1-[(2-ethylphenyl)carbamothioyl]-3-[4-[3-[1-[4-(trifluoromethoxy)phenyl]-1H-1,2,4-triazol-3-yl]phenyl]butyl]urea]	–	–	0 to 50%	50 to 100%
CC(C)c1ccccc1NC(=S)NC(=O)NCCCCc1cccc(-c2ncn(-c3ccc(OC(F)(F)F)cc3)n2)c1 [PC172, 1-[(2-isopropylphenyl)carbamothioyl]-3-[4-[3-[1-[4-(trifluoromethoxy)phenyl]-1H-1,2,4-triazol-3-yl]phenyl]butyl]urea]	–	–	50 to 100%	50 to 100%
Cc1ccc(C(C)C)c(NC(=S)NC(=O)NCCCCc2cccc(-c3ncn(-c4ccc(OC(F)(F)F)cc4)n3)c2)c1 [PC176, 1-[(2-isopropyl-5-methyl-phenyl)carbamothioyl]-3-[4-[3-[1-[4-(trifluoromethoxy)phenyl]-1H-1,2,4-triazol-3-yl]phenyl]butyl]urea]	–	–	0 to 50%	50 to 100%
CCc1cccc(C)c1NC(=S)NC(=O)NCCCCc1cccc(-c2ncn(-c3ccc(OC(F)(F)F)cc3)n2)c1 [PC179, 1-[(2-ethyl-6-methyl-phenyl)carbamothioyl]-3-[4-[3-[1-[4-(trifluoromethoxy)phenyl]-1H-1,2,4-triazol-3-yl]phenyl]butyl]urea]	–	–	0 to 50%	50 to 100%
